Results taken from PubChem BioAssay AID1645862 (Buhrlage Lab, Dana-Farber Cancer Institute and Novartis …, 2021).
Calls of active or inactive are those of the source. The rule behind the calls is not given here.

Molecular target: Ubiquitin carboxyl-terminal hydrolase 8 (Homo sapiens) (UniProt P40818)
Experiment: Ubiquitin-specific protease 8 inhibitors, concentration-effect, biochemical, validation of initial actives (AID 1645862);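 note: potency reflects inhibition of USP8 cleavage of a ubiquitin rhodamine substrate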
Details: recombinant USP8 deubiquitinase activity assay

Ubiquitin carboxyl-terminal hydrolase 8 (Homo sapiens), sequence (P40818 whole entry, looked up): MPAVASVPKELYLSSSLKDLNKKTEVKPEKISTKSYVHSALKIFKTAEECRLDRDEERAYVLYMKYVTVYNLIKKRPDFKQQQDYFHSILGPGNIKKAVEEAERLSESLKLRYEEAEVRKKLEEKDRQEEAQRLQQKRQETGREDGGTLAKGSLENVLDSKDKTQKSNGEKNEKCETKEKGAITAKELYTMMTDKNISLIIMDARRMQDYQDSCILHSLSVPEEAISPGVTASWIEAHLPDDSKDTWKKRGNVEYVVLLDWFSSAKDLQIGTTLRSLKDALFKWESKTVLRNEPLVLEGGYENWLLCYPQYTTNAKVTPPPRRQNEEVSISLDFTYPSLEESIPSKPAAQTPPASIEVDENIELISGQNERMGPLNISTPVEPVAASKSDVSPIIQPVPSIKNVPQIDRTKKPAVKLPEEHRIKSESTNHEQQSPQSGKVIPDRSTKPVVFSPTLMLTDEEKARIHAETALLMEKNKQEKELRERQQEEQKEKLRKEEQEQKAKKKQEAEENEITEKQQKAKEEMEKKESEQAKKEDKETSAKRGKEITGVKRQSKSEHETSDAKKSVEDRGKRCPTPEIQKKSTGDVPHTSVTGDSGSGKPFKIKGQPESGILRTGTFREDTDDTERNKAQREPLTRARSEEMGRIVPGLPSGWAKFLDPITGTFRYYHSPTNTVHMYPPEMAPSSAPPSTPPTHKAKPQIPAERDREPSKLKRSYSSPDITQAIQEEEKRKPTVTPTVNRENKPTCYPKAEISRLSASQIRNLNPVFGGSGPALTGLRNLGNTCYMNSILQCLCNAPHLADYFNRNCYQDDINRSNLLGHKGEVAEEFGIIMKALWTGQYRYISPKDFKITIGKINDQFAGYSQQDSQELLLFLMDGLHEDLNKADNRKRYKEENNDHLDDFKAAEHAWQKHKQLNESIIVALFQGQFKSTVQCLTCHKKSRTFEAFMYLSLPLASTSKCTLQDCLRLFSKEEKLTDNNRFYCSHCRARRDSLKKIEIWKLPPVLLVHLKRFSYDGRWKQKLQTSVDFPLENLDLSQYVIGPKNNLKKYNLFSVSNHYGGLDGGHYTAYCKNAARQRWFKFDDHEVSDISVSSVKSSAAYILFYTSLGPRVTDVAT

CCOc1ccccc1NC(=O)Cn1c(=O)n(CCC(=O)NCCc2ccc(OC)c(OC)c2)c(=O)c2ccccc21
IC50: > 40 µM (inactive)

CCc1ccc(NC(=O)C(C)OC(=O)/C=C/c2ccc(S(=O)(=O)Nc3cccc(S(N)(=O)=O)c3)cc2)cc1 (stereo not drawn)
IC50: > 40 µM (inactive)

CCCCCCCCCc1cc(OC(=O)c2c(CCCCCCCCC)cc(O)cc2O[C@@H]2O[C@H](CO)[C@@H](O)[C@H](O)[C@H]2O)cc(O)c1C(=O)O
IC50: 6.23 µM

O=C(Nc1ccccc1C(=O)NC1CCSC1)c1ccc([N+](=O)[O-])cc1 (stereo not drawn)
IC50: > 40 µM (inactive)

COc1ccc(C(CNC(=O)c2cc(-c3ccc(Cl)cc3)on2)N2CCOCC2)cc1 (stereo not drawn)
IC50: > 40 µM (inactive)

OC1CCCN(c2ncc(-c3cnccn3)c(-c3cccs3)n2)C1 (stereo not drawn)
IC50: > 40 µM (inactive)

O=C(Nc1ccccc1F)c1nc(-c2cn(-c3ccc(F)cc3)nn2)no1
IC50: 22.4 µM

O=C(Cc1ccc(-n2c(=O)c3ccccc3n(Cc3cccc(F)c3)c2=O)cc1)NC1CCCC1
IC50: > 40 µM (inactive)

Cn1c(=O)[nH]c2nncnc2c1=O
IC50: 20.7 µM

CSc1ncccc1C(=O)NC1(O)C(=O)c2ccccc2C1=O
IC50: 5.16 µM

Cc1ccc(NC(=O)Cn2cnc3c(c(C)c(C)n3-c3ccccc3)c2=O)c(C)c1
IC50: > 40 µM (inactive)

C/C=C/C=C/[C@@H]1Cc2cc(O)cc(O)c2O1
IC50: 20.2 µM

Cc1cccc(-n2ccnc(SCC(=O)Nc3ccc(Cl)cc3F)c2=O)c1
IC50: > 40 µM (inactive)

COc1ccc(CNC(=O)Nc2cccc3ccccc23)cc1
IC50: > 40 µM (inactive)

O=C(CCc1ccc(S(=O)(=O)N2CCOCC2)cc1)OCC(=O)c1ccc(-c2ccccc2)cc1
IC50: > 40 µM (inactive)

Fc1ccccc1-c1nc2c3cnn(-c4ccccc4)c3ncn2n1
IC50: > 40 µM (inactive)

N#Cc1cn2c(nc1-c1ccc(Cl)cc1)nc1ccccc12
IC50: > 40 µM (inactive)

O=C(Nc1ccc(C(F)(F)F)cc1)C1CC(=O)N(c2ccc3c(c2)OCCO3)C1 (stereo not drawn)
IC50: > 40 µM (inactive)

COc1ccc2nc(-c3ccc(NC(=O)c4cccc(OC)c4OC)cc3)cn2n1
IC50: > 40 µM (inactive)

CCOc1ccc2c(c1)c(=O)c(C(=O)c1ccccc1)cn2CC(=O)Nc1ccc(OC)cc1
IC50: > 40 µM (inactive)

Cc1ccc(N2CC(C(=O)Nc3cccc(-c4noc(C)n4)c3)CC2=O)cc1 (stereo not drawn)
IC50: > 40 µM (inactive)

O=C(/C=C/c1ccc(Br)cc1)Nc1cnc2ccccc2c1
IC50: > 40 µM (inactive)

CN(C)c1cccc(-c2nnc(SCC(=O)Nc3ccc(F)cc3)n2-c2ccccc2)c1
IC50: > 40 µM (inactive)

COc1cc(NC(=O)Cn2c(=O)n(-c3ccc(CC(=O)NC4CCCC4)cc3)c(=O)c3ccccc32)cc(OC)c1
IC50: > 40 µM (inactive)

CCc1ccc(-n2cc(OC(C)=O)c3c2nc(C)n2c4ccccc4nc32)cc1
IC50: > 40 µM (inactive)

CCc1nc(SCC(=O)Nc2ccc(Cl)c(Cl)c2)c2oc3ccccc3c2n1
IC50: > 40 µM (inactive)

COc1ccc2c(c1)CCc1c-2n[nH]c1C(=O)Nc1cc(C)on1
IC50: > 40 µM (inactive)

COc1ccc(NC(=O)Cn2cc(C(=O)c3ccc(F)cc3)c(=O)c3cc(C)ccc32)cc1OC
IC50: > 40 µM (inactive)

O=C(Cn1c(=O)[nH]c2c(-c3ccc(F)cc3)c[nH]c2c1=O)NCc1ccc(F)cc1
IC50: > 40 µM (inactive)

C[C@H](NC(=O)Cc1ccccc1F)c1nc2cc(-c3ccccc3F)ncn2n1
IC50: > 40 µM (inactive)

COc1ccccc1N(CC(=O)N1c2ccccc2CC1C)S(=O)(=O)c1ccc(F)cc1 (stereo not drawn)
IC50: > 40 µM (inactive)

O=C(Cn1c(=O)n(CC2CCC(C(=O)NC3CCCC3)CC2)c(=O)c2ccccc21)NCCC1=CCCCC1 (stereo not drawn)
IC50: > 40 µM (inactive)

CCOc1ccc(-n2ccnc(SCC(=O)Nc3ccccc3F)c2=O)cc1
IC50: > 40 µM (inactive)

COC(=O)c1ccccc1NC(=O)Cn1c(=O)n(CCCC(=O)NCc2ccco2)c(=O)c2ccccc21
IC50: > 40 µM (inactive)

COc1ccc(-c2nc(Cn3nnc(C(=O)Nc4ccc(C)c(C)c4)c3N)c(C)o2)cc1
IC50: > 40 µM (inactive)

Cc1ccccc1Cn1c(=O)n(CC2CCC(C(=O)NC3CCCC3)CC2)c(=O)c2ccccc21 (stereo not drawn)
IC50: > 40 µM (inactive)

Cc1cccc(N2CCN(C(=O)c3nc4cccnc4n(C)c3=O)CC2)c1C
IC50: > 40 µM (inactive)

COc1ccc(/C=C/C(=O)Nc2cccc(S(=O)(=O)Nc3ccccc3Cl)c2)c(OC)c1
IC50: > 40 µM (inactive)

CS(=O)(=O)c1cccc(-c2nnc(NC(=O)c3ccc(Cc4ccccc4)cc3)o2)c1
IC50: > 40 µM (inactive)

CCCCCCCCCC(CCCCCCCCCC(=O)O)O[C@H]1O[C@@H](COC(C)=O)[C@H](O)[C@@H](O)[C@H]1OC(=O)CC(=O)O (stereo partly drawn)
IC50: > 40 µM (inactive)

CCc1ccc(NC(=O)CSc2nc3nccnc3c(=O)n2Cc2ccc(F)cc2)cc1
IC50: > 40 µM (inactive)

CCOc1ccc(-c2nnc(NC(=O)C3CCN(S(=O)(=O)c4ccc5c(c4)CCC5)CC3)o2)cc1
IC50: > 40 µM (inactive)

N#Cc1ccc(NC(=O)Nc2cccn(Cc3ccc(F)cc3)c2=O)cc1
IC50: > 40 µM (inactive)

CCOc1ccc2[nH]c(=O)c(-c3nc4ccc(C)cn4c3NCc3ccccc3)cc2c1
IC50: > 40 µM (inactive)

CCOc1ccc2[nH]c3c(=O)n(CCc4ccc(OC)cc4)cnc3c2c1
IC50: > 40 µM (inactive)

CC(NC(=O)c1ccccc1)c1nc2ccccc2n1CC(=O)Nc1ccc(OC(F)(F)F)cc1 (stereo not drawn)
IC50: > 40 µM (inactive)

COc1cn(-c2ccc(F)cc2)nc1C(=O)Nc1ccc(Cl)cc1Cl
IC50: 15.1 µM

O=C(/C=C/c1ccc(F)cc1)N1CCc2ccccc2C1
IC50: 26 µM

Nc1ncc(-c2ccc(F)cc2)c(C2CCCN(C(=O)c3ccn[nH]3)C2)n1 (stereo not drawn)
IC50: > 40 µM (inactive)

CSc1cccc(C(=O)Nc2ccc(-c3nc4ccccc4[nH]3)cc2)c1
IC50: > 40 µM (inactive)

COc1ccccc1-c1nc(-c2cn(-c3ccc(F)cc3)nn2)no1
IC50: 27.8 µM

COc1ccc(NS(=O)(=O)c2cc(NC(=O)/C=C/c3ccco3)ccc2N2CCCC2)cc1
IC50: > 40 µM (inactive)

CN1C(=O)COc2cc(-c3noc(C(=O)NCc4ccc(F)cc4)n3)ccc21
IC50: > 40 µM (inactive)

Cc1ccc(NC(=O)Cn2c(=O)n(CC(=O)NCCc3ccccc3)c(=O)c3sccc32)cc1C
IC50: > 40 µM (inactive)

Cc1cc(C)c(O)c(-c2cc(C(=O)Nc3ccccc3Cl)[nH]n2)c1
IC50: > 40 µM (inactive)

COc1ccc(C2/C(=C(\O)c3ccccc3)C(=O)C(=O)N2c2cccc(C(F)(F)F)c2)cc1 (stereo not drawn)
IC50: > 40 µM (inactive)

Cc1ccc(NC(=O)Cc2nnc3c(-c4nc(C5CC5)no4)cccn23)cc1
IC50: 18.7 µM

Cc1nnc(-c2cc(S(=O)(=O)N3CCN(c4ccc(F)cc4)CC3)c[nH]2)o1
IC50: > 40 µM (inactive)

COc1cccc(NC(=O)Cn2cc(C(=O)c3ccc(C)cc3)c(=O)c3cc(Cl)ccc32)c1
IC50: 19.3 µM

O=C(CSc1ccc2nnc(-c3ccc(Cl)cc3)n2n1)N1CCCCC1
IC50: > 40 µM (inactive)

O=C(CSc1nnc2ccc3ccccc3n12)c1ccc(Cl)cc1
IC50: > 40 µM (inactive)

O=C(CCc1nnc2n(Cc3ccccc3Cl)c(=O)c3ccccc3n12)NCc1ccccc1
IC50: > 40 µM (inactive)

COc1ccc2c(c1)c(=O)c(S(=O)(=O)c1ccc(F)cc1)cn2Cc1cccc(F)c1
IC50: > 40 µM (inactive)

O=C(Cn1c(=O)[nH]c2c(-c3ccccc3)c[nH]c2c1=O)NCc1ccccc1Cl
IC50: > 40 µM (inactive)

COc1ccc(OC)c(NC2=NS(=O)(=O)C(c3cccc(Br)c3)=C2C)c1
IC50: > 40 µM (inactive)

Cc1cc(N2CCN(c3ncccn3)CC2)nc2ccc(NC(=O)c3ccncc3)cc12
IC50: > 40 µM (inactive)

O=c1[nH]c(C2CCN(S(=O)(=O)c3ccc(S(=O)(=O)NC4CCCCC4)cc3)CC2)nc2c1nnn2Cc1c(F)cccc1Cl
IC50: > 40 µM (inactive)

Cc1sc(NC(=O)Cn2nnc3ccccc32)nc1-c1ccc2c(c1)CCN2C(=O)c1ccccc1F
IC50: > 40 µM (inactive)

CCCCNC(=O)CSc1nnc(-c2cc3ccccc3n2C)o1
IC50: > 40 µM (inactive)

COc1cc2c(cc1OC)-c1cc(Nc3ccc(Br)cc3)nc(=O)n1CC2
IC50: > 40 µM (inactive)

O=C(COc1ccc(Cl)cc1Cl)Nc1ccc2[nH]c(=O)[nH]c2c1
IC50: > 40 µM (inactive)

COc1cccc(-c2cc(C(=O)Nc3cc(C)n(Cc4ccc(Cl)cc4)n3)no2)c1
IC50: > 40 µM (inactive)

CC(=O)Nc1ccc(C(=O)/C=C2\NCCc3cc4c(cc32)OCCCO4)cc1
IC50: > 40 µM (inactive)

COc1ccc(Cl)cc1NC(=O)Cn1c(=O)n(CCC(=O)NC2CCCC2)c(=O)c2ccccc21
IC50: > 40 µM (inactive)

COc1ccccc1-c1noc(CCCC(=O)Nc2ccccc2)n1
IC50: > 40 µM (inactive)

Cc1cc(C)cc(NC(=O)C2CC(=O)Nc3nc4ccccc4n32)c1 (stereo not drawn)
IC50: > 40 µM (inactive)

Cc1ccc(NC(=O)CSc2ccc(NC(=O)c3ccc(C(=O)O)cc3C(=O)O)cc2)c(C)c1
IC50: > 40 µM (inactive)

Cc1c(NC(=O)/C=C/c2cccc(Cl)c2Cl)cccc1-n1cnnn1
IC50: > 40 µM (inactive)

CO/C=C/C(=O)c1cc2cnc3c(=N)cc(NC(C)=O)c([nH]1)c23
IC50: 1.44 µM

CCOc1ccc(-n2c(SCC(=O)Nc3ccc(C)cc3)nnc2-c2c[nH]c3ccccc23)cc1
IC50: 28.1 µM

COc1ccc(C(=O)Nc2ccccc2C(=O)NC(Cc2ccc(O)cc2)C(=O)NNC(=O)c2ccccc2Cl)cc1 (stereo not drawn)
IC50: > 40 µM (inactive)

CCCC[C@@H](C)/C=C(C)/C=C(\C)C(=O)NC1=C[C@](O)(/C=C/C=C/C=C/C(=O)NC2=C(O)CCC2=O)[C@@H]2O[C@@H]2C1=O
IC50: > 40 µM (inactive)

Cc1c(C)n(-c2ccccc2)c2ncn(CC(=O)NCc3cccc(F)c3)c(=O)c12
IC50: > 40 µM (inactive)

Cc1cc(C(=O)N2CCOCC2)c(C)n1-c1ccc(O)cc1
IC50: 22.8 µM

COc1ccc([C@H]2Oc3cc(OC)cc(O)c3C(=O)[C@@H]2[C@@H]2C(=O)c3c(O)cc(O)cc3O[C@H]2c2ccc(OC)cc2)cc1
IC50: > 40 µM (inactive)

c1cncc(-c2cnc3sc(NC4CCCCC4)nn23)c1
IC50: > 40 µM (inactive)

Cc1cccc(C(=O)Nc2cccc(SC(C(=O)Nc3ccc(Cl)c(C(=O)O)c3)c3ccccc3)c2)c1 (stereo not drawn)
IC50: 23.4 µM

CSc1nc(N)c2c(n1)N[C@H]1OC[C@H](O)[C@H](O)[C@H]1N2
IC50: > 40 µM (inactive)
